14 compounds from article PMC6210068 (ACS Omega, 2018) can be followed below.

The term Ki denotes a measure of affinity in units of concentration, obtained from inhibition or displacement. A low value points to tighter binding. In general, inhibition refers to the percentage by which the read-out fell short of the control.

Where two headings read alike, the source gives them in different places. A value given as a limit tells only on which side of the number the result lay.

Assay [1] deals with rat kidney TSPO (Rattus norvegicus, UniProt P16257). Put plainly: Radioligand binding at TSPO. The following applies: for Ki: TSPO, rat TSPO, [3H]PK11195.
rat kidney TSPO, sequence (P16257 whole entry): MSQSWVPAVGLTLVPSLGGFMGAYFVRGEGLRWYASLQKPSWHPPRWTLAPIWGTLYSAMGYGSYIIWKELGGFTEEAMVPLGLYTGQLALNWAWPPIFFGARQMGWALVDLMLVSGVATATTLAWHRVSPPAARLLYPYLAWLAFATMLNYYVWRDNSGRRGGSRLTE
In assay [2] the target is hDAT (Homo sapiens, UniProt Q01959). Nature of the assay: Radioligand binding at DAT. To be noted: 10 μM; [3H]WIN35428; negative = enhanced radioligand binding.
hDAT, sequence (Q01959 whole entry): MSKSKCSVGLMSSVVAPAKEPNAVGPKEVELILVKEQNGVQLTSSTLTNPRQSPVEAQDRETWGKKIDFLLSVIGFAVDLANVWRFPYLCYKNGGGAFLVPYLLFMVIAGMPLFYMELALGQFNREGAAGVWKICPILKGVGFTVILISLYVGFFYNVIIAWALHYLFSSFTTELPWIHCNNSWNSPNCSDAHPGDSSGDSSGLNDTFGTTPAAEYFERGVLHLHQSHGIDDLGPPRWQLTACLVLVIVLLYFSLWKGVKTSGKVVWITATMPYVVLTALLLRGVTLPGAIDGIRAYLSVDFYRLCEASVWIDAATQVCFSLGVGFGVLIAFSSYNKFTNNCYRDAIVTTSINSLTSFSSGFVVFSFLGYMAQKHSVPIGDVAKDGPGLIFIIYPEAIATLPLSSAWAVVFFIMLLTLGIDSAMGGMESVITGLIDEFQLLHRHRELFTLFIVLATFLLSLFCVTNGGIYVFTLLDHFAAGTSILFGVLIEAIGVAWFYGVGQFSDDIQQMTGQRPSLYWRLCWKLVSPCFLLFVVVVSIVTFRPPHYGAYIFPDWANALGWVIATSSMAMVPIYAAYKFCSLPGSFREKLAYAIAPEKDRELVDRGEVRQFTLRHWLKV
The target in assay [3] is T1, hA1AR (Homo sapiens, UniProt P30542).
T1 sequence (P30542 1-326): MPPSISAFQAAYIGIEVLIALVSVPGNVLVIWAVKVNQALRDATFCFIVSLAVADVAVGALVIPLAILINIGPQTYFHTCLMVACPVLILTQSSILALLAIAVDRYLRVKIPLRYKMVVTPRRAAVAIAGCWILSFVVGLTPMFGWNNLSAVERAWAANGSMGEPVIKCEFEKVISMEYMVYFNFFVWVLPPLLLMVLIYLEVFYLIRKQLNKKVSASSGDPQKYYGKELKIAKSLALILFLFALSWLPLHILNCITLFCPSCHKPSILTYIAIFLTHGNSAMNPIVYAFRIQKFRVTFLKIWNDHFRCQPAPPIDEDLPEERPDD
Put plainly: hA1AR binding. To be noted: for inhibition at 10 µM: read-out: binding inhibition at hA1AR (% at 10 μM).

The target in assay [4] is DOR (Homo sapiens, UniProt P41143). Put plainly: Radioligand binding at DOR.
DOR, sequence (P41143 whole entry): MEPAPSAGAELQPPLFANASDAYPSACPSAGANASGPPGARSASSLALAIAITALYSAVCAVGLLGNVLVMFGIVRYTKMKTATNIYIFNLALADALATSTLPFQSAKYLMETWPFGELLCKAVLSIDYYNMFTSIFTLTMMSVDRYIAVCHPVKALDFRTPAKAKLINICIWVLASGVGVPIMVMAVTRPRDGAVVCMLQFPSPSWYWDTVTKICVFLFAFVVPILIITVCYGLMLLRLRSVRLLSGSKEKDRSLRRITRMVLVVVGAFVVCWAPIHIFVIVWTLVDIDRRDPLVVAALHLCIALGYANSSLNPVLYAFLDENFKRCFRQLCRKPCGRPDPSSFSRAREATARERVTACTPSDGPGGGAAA
Assay [5] deals with T2, hA3AR (Homo sapiens, UniProt P0DMS8).
T2 sequence (P0DMS8 1-318): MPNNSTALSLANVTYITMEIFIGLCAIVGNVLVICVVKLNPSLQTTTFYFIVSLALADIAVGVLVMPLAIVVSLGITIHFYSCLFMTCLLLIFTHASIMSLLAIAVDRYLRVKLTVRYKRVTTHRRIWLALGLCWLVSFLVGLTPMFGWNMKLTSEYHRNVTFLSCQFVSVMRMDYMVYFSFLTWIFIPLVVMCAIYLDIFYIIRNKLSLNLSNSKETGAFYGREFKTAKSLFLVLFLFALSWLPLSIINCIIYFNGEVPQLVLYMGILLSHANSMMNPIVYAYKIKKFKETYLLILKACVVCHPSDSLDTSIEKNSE
Nature of the assay: A3AR binding.

The target of assay [6] is T3, KOR (Homo sapiens, UniProt P41145). Nature of the assay: biochemical. To be noted: for Ki: KOR, [3H]U69593, mean ± SEM, N = 2–4; for KOR, inhibition of radioligand binding at 10 μM (class): Table 5. The assay is classed as binding.
T3 sequence (P41145 whole entry): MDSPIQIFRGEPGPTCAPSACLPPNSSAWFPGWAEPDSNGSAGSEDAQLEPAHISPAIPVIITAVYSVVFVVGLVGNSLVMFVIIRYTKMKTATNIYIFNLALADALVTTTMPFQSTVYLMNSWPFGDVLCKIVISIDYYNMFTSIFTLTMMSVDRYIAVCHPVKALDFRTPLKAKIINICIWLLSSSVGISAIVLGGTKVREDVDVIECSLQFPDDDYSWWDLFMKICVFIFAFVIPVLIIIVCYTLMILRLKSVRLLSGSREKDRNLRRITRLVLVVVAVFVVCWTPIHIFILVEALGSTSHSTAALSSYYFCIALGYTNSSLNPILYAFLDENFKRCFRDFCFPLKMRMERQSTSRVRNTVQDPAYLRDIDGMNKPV
The target in assay [7] is MOR (Homo sapiens, UniProt P35372). Nature of the assay: biochemical. The assay is classed as binding.
MOR, sequence (P35372 whole entry): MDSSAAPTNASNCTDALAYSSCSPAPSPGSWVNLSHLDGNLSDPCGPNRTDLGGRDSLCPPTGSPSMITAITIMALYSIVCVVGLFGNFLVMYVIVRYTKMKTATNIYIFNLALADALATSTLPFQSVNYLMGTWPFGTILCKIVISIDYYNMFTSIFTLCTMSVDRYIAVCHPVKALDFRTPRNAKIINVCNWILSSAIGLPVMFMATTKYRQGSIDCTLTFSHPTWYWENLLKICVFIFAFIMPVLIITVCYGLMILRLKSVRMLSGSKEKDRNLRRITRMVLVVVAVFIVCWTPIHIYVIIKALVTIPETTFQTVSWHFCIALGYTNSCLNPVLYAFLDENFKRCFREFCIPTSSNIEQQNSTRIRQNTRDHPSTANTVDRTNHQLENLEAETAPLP
Assay [8] deals with T3, KOR. The assay is classed as cell-based.
Assay [9] deals with hA2AAR (Homo sapiens, UniProt P29274). Put plainly: hA2AAR binding. To be noted: read-out: binding inhibition at hA2AAR (% at 10 μM).
hA2AAR, sequence (P29274 whole entry): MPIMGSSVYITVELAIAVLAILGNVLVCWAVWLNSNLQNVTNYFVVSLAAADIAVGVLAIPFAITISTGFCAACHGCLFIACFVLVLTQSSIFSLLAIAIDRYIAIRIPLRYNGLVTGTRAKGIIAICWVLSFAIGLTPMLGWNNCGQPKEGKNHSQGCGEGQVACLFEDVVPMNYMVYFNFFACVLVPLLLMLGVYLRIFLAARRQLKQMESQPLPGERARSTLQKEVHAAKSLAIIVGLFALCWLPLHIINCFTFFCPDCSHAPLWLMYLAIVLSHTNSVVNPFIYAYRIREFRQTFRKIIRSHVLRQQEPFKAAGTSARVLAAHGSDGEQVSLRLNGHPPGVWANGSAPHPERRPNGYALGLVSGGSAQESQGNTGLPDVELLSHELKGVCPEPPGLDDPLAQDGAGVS
The target of assay [10] is T4, rat σ2 receptor (Rattus norvegicus, UniProt Q5U3Y7).
T4 sequence (Q5U3Y7 1-176): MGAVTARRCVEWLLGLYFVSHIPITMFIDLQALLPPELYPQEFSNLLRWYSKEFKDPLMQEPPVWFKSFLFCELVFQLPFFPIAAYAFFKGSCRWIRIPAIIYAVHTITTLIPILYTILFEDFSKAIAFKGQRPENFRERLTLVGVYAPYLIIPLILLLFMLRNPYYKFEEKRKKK
Nature of the assay: PDSP binding, σ2 receptor.

`CNC(=O)[C@@]12C[C@@H]1[C@@H](n1cnc3c(NCc4cccc(Cl)c4)nc(C#Cc4ccc(F)cc4)nc31)[C@H](O)[C@@H]2O` [compound 7] yielded a Ki in assay [1] of about 300 nM. Besides, the “DAT, inhibition, % of control at 10 μM” value in [2] was found to be 21%. Further, the inhibition at 10 µM in assay [3] was found to be 22%.

In the case of `CNC(=O)[C@@]12C[C@@H]1[C@@H](n1ccc3c(NC)ncnc31)[C@H](O)[C@@H]2O` [compound 17], in assay [4] (Table 1), the “DOR, inhibition of radioligand binding at 10 μM (class)” value (from here on “DOR, inhibition of radioligand binding”) is “^e (30–50% inhibition of radioligand binding at 10 μM)”. Also, in assay [1] (Table 1), the “TSPO, inhibition of radioligand binding at 10 μM (class)” value (shortened to “TSPO, inhibition of radioligand binding”) was “^e (30–50% inhibition of radioligand binding at 10 μM)”. The “DAT, inhibition, % of control at 10 μM” value in [2] was “–14%”. In [5], this compound came in with an inhibitory constant (Ki) of 498 ± 46 nM.

As to `CCCNc1nc(C#Cc2ccc(Cl)s2)nc2c1ncn2[C@H]1[C@H](O)[C@H](O)[C@]2(C(=O)NC)C[C@H]12` [compound 18], the “DOR, inhibition of radioligand binding” value in assay [4] (Table 1) is recorded as “^e (30–50% inhibition of radioligand binding at 10 μM)”. Moreover, the Ki in assay [1] was 1310 ± 210 nM. Also, the “DAT, inhibition, % of control at 10 μM” value in assay [2] is “–159%”. The inhibition at 10 µM in assay [3] amounted to 22%.

Take `CNc1nc(C#Cc2ccc(Cl)s2)nc2c1ncn2[C@H]1[C@H](O)[C@H](O)[C@]2(C(=O)OCCC3CCCCC3)C[C@H]12` [compound 34]: the “DOR, inhibition of radioligand binding” value in assay [4] (Table 2) is on record as “^c (30–50% inhibition of radioligand binding at 10 μM)”. Moreover, the inhibition constant (Ki) in [6] is over 10000 nM; in assay [5], 334 ± 132 nM. In assay [7] (Table 2), the “MOR, inhibition of radioligand binding at 10 μM (class)” value (shortened to “MOR, inhibition of radioligand binding”) is “^d (<30% inhibition of radioligand binding at 10 μM)”. Besides, the “TSPO, inhibition of radioligand binding” value in assay [1] (Table 2) is recorded as “^c (30–50% inhibition of radioligand binding at 10 μM)”. Moreover, in assay [2], the “DAT, inhibition, % of control at 10 μM” value was under 20%.

For `CNc1nc(C#Cc2ccc(Cl)s2)nc2c1ncn2[C@H]1[C@H](O)[C@H](O)[C@]2(C(=O)OCCc3ccccc3)C[C@H]12` [compound 36], the “DOR, inhibition of radioligand binding” value in assay [4] (Table 2) was “^d (<30% inhibition of radioligand binding at 10 μM)”. For the same compound, the inhibition constant Ki in assay [6] was 3670 ± 1640 nM; in assay [5] it was 114 ± 64 nM. The “MOR, inhibition of radioligand binding” value in assay [7] (Table 2) is on record as “^d (<30% inhibition of radioligand binding at 10 μM)”. Besides, the “TSPO, inhibition of radioligand binding” value in [1] (Table 2) was “^d (<30% inhibition of radioligand binding at 10 μM)”. The “DAT, inhibition, % of control at 10 μM” value in [2] is listed as under 20%.

For the compound `CNc1nc(C#Cc2ccc(Cl)s2)nc2c1ncn2[C@H]1[C@H](O)[C@H](O)[C@]2(C(=O)OCCCc3ccccc3)C[C@H]12` [compound 37], in [4] (Table 2), the “DOR, inhibition of radioligand binding” value is “^d (<30% inhibition of radioligand binding at 10 μM)”. Besides, the results for the inhibition constant (Ki) in assay [6], in [1] and in assay [5] were 8920 ± 1080 nM, 1090 ± 290 nM and 132 ± 68 nM, respectively. Moreover, the “MOR, inhibition of radioligand binding” value in assay [7] (Table 2) is “^d (<30% inhibition of radioligand binding at 10 μM)”. The “DAT, inhibition, % of control at 10 μM” value in assay [2] was under 20%.

Turning to `CCOC(=O)[C@@]12C[C@@H]1[C@@H](n1ccc3c(NC)nc(I)nc31)[C@H](O)[C@@H]2O` [compound 39, Ethyl(1S,2R,3S,4R,5S)-2,3-dihydroxy-4-(2-iodo-4-(methylamino)-7H-pyrrolo[2,3-d]pyrimidin-7-yl)bicyclo[3.1.0]hexane-1-carboxylate], the Ki was determined as 1590 ± 280 nM in assay [4], 104 ± 35 nM in assay [6] and 390 ± 139 nM in assay [5]. Moreover, the “MOR, inhibition of radioligand binding” value in assay [7] (Table 2) is “^c (30–50% inhibition of radioligand binding at 10 μM)”. Also, in assay [1] (Table 2), the “TSPO, inhibition of radioligand binding” value was “^d (<30% inhibition of radioligand binding at 10 μM)”. The “DAT, inhibition, % of control at 10 μM” value in assay [2] is listed as under 10%. Further, the “βarrestin2 recruitment, Imax (% 120)” value in assay [8] (antagonism of 1 μM U69593 98) is recorded as 77 ± 3 % 120.

In the case of `CCOC(=O)[C@@]12C[C@@H]1[C@@H](n1ccc3c(NC4CC4)nc(C#Cc4ccccc4)nc31)[C@H](O)[C@@H]2O` [compound 41, Ethyl(1S,2R,3S,4R,5S)-4-(4-(cyclopropylamino)-2-(phenylethynyl)-7H-pyrrolo[2,3-d]pyrimidin-7-yl)-2,3-dihydroxybicyclo[3.1.0]hexane-1-carboxylate], the Ki in [4] was found to be 2400 ± 90 nM; in assay [6], 852 ± 137 nM; in assay [7], 2110 ± 590 nM; in assay [5], 228 ± 115 nM. For the same compound, the “TSPO, inhibition of radioligand binding” value in [1] (Table 2) is reported as “^c (30–50% inhibition of radioligand binding at 10 μM)”. The “DAT, inhibition, % of control at 10 μM” value in assay [2] is “–312%”. For the same compound, the values for the inhibition at 10 µM in assay [3] and in assay [9] were 44% and 25%, respectively.

For the compound `O[C@@H]1[C@H](O)[C@@H]2C[C@@H]2[C@H]1n1cnc2c(NCCc3ccccc3)nc(C#Cc3ccccc3)nc21` [compound 51], the “DOR, inhibition of radioligand binding” value in assay [4] (Table 4) is reported as “^g (<30% inhibition of radioligand binding at 10 μM)”. Besides, the “TSPO, inhibition of radioligand binding” value in [1] (Table 4) is reported as “^g (<30% inhibition of radioligand binding at 10 μM)”. In addition, the “DAT, inhibition, % of control at 10 μM” value in [2] is 24%. Besides, in assay [10], the Ki is 1480 nM.

On to `O[C@@H]1[C@H](O)[C@@H]2C[C@@H]2[C@H]1n1cnc2c(NCCc3ccccc3)nc(C#Cc3ccccc3Cl)nc21` [compound 52], for which the “DOR, inhibition of radioligand binding” value in assay [4] (Table 4) is on record as “^f (30–50% inhibition of radioligand binding at 10 μM)”. For the same compound, the Ki in assay [1] was found to be 877 ± 368 nM; in assay [10], 1820 nM. Moreover, the “DAT, inhibition, % of control at 10 μM” value in assay [2] turned out to be 7%.

With `O[C@@H]1[C@H](O)[C@@H]2C[C@@H]2[C@H]1n1ccc2c(NC(C3CC3)C3CC3)nc(C#Cc3ccccc3)nc21` [compound 56, (1R,2R,3S,4R,5S)-4-(4-((Dicyclopropylmethyl)amino)-2-(phenylethynyl)-7H-pyrrolo[2,3-d]pyrimidin-7-yl)bicyclo[3.1.0]hexane-2,3-diol], the Ki amounted to 2550 ± 660 nM in assay [4]; 1440 ± 750 nM in assay [7]; 4210 ± 1840 nM in assay [1]; 178 ± 32 nM in [5]; 650 nM in assay [3]; 670 nM in [10]. Further, the “KOR, inhibition of radioligand binding at 10 μM (class)” value in assay [6] is recorded as “^d (30–50% inhibition of radioligand binding at 10 μM)”.

As to `O[C@@H]1[C@H](O)[C@@H]2C[C@@H]2[C@H]1n1ccc2c(NC(C3CC3)C3CC3)nc(I)nc21` [compound 58, (1R,2R,3S,4R,5S)-4-(4-((Dicyclopropylmethyl)amino)-2-iodo-7H-pyrrolo[2,3-d]pyrimidin-7-yl)bicyclo[3.1.0]hexane-2,3-diol], in assay [4] (Table 5), the “DOR, inhibition of radioligand binding” value is “^e (<30% inhibition of radioligand binding at 10 μM)”. The “KOR, inhibition of radioligand binding at 10 μM (class)” value in [6] was “^e (<30% inhibition of radioligand binding at 10 μM)”. For the same compound, the “MOR, inhibition of radioligand binding” value in assay [7] (Table 5) is “^e (<30% inhibition of radioligand binding at 10 μM)”. Moreover, in [1] (Table 5), the “TSPO, inhibition of radioligand binding” value is recorded as “^e (<30% inhibition of radioligand binding at 10 μM)”. In assay [5], this compound displayed an inhibition constant (Ki) of 5310 ± 1310 nM.

For the compound `CCOC(=O)[C@@]12C[C@@H]1[C@@H](n1ccc3c(NCCc4ccccc4)nc(C#Cc4ccccc4)nc31)[C@@H]1OC(C)(C)O[C@@H]12` [compound 82, Ethyl(3aR,3bS,4aS,5R,5aS)-2,2-dimethyl-5-(4-(phenethylamino)-2-(phenylethynyl)-7H-pyrrolo[2,3-d]pyrimidin-7-yl)tetrahydrocyclopropa[3,4]cyclopenta[1,2-d][1,3]dioxole-3b(3aH)-carboxylate], the inhibition constant (Ki) in [4] was 881 ± 158 nM; in assay [6], 217 ± 100 nM; in assay [7], over 10000 nM; in assay [1] it was over 10000 nM; in [5] it was 905 ± 144 nM. Besides, the “DAT, inhibition, % of control at 10 μM” value in assay [2] is reported as “–24%”.

Regarding `Oc1ccc2c3c1O[C@H]1c4[nH]c5c(c4C[C@@]4(O)[C@@H](C2)N(CC2CC2)CC[C@]314)C[C@@]1(O)[C@H]2Cc3ccc(O)c4c3[C@@]1(CCN2CC1CC1)[C@H]5O4` [compound 120, Norbinaltorphimine, reference compound], the “βarrestin2 recruitment, Imax (% 120)” value in assay [8] is 100 % 120.
